Measurements as given in patent publication US5716956A, “Dihydrophthalazine antagonists of excitatory amino acid receptors” (Bearsden Bearsden Bio, Inc., priority 1996, dated 1998).
Like-named read-outs stand apart in the source and are kept apart here.

Tests used:
AMPA receptor = AMPA receptor inhibition, whole-cell patch clamp, KA-stimulated currents in primary cultures of rat neocortex; type: cell-based; conditions: rat cortical neurons; for AMPA % INHIBITION (10 μM drug): KA 50 μM; for IC50: 5 doses
Experimental: The potency of Examples 1-5, 7, 11, 17 and 31 listed in Table 1, for drug inhibition of the AMPA receptor was tested using the whole-cell patch clamp technique on primary cultures of rat neocortex. The general procedure for stimulating AMPA-receptor mediated currents with KA and for the measurement of current inhibition is based on that used by Donevan and Rogawski (Neuron, 10:51-59, 1993) for 2,3-benzodiazepines.
Standard extracellular bath solutions and intracellular pipette solutions are used as described in detail by Hussy and coworkers (J. Physiol. (Lond.), 481.2:311-323,1994). The drug application system is designed to allow rapid switching between 7 different reservoirs containing either control bath solution, kainic acid (50 μM), or kainic acid (50 μM) plus antagonist (10 μM). Each recording is begun with a control response to KA alone.
Following the establishment of a 2-3 sec duration steady baseline, bathing solution is switched to one containing KA plus antagonist for an additional 2-3 sec period. Alternatively, 5 different doses of a single compound are tested for the determination of the antagonist IC50. The results of the assay of Examples 1-5, 7, 11, 17 and 31 are listed below in Table 3, which illustrates AMPA receptor inhibition in rat cortical neurons. The compounds tested all were useful as antagonists of non-NMDA EAA receptors.

Male NIH Swiss mice = experiment: Maximum Electro Shock (MES) Seizure Test; type: in vivo; conditions: ip, 0.5 hours
Experimental: The extent of protection by a test compound in a seizure model is tested as described by Rogawski et al. (Epilepsy Research, 15:179-184, 1993). Male NIH Swiss mice (25-30 g) are injected ip with the test drug. The mice are subjected to a 0.2 sec, 60 Hz, 50 mA electrical stimulus delivered with corneal electrodes wetted with 0.9% saline at 15-30 min post dosing. Animals failing to show tonic hind limb extension are scored as protected. Compounds may be selected which are active in this model.

Mice = experiment: Subcutaneous Metrazol (scMET) Seizure Test; type: in vivo; conditions: 30 mg/kg, 0.5 hr, metrazol 90 mg/kg sc
Experimental: This test is to determine the extent of protection by a test compound in a seizure model. The method used is that of Chen et at. (Proc. Soc. Exp. Biol. Med., 87:334, 1954). Mice are randomly assigned to vehicle or treatment groups of 3-10 animals per group and then dosed accordingly. Metrazol (pentylenetetrazol) 90 mg/kg is administered subcutaneously (sc) at different time points (0.25, 0.5, 1, 2, 4 hr) after the treatment or control groups. The mice individually housed in clear runs and observed for the presence or absence of clonic seizure activity (>5 s duration) for 30 min after metrazol dosing. A compound is considered active if no seizure is observed. Data is analyzed using a quantal measure (protection/number tested).

global ischemia = conditions: rat common carotid arteries model; cited from earlier work
cortical infarct volumes = conditions: cited from earlier work

Row | Structure (SMILES) | AMPA % INHIBITION (10 μM drug) (AMPA receptor) [%] | IC50 (AMPA receptor) [µM] | other results
1 | CNC(=O)N1N=C(c2ccc(N)cc2)c2cc3c(cc2C1C)OCO3 (stereo not drawn) [Example 1, 4-(4-Aminophenyl)-1,2-dihydro-1-methyl-2-(N"-methylcarbamoyl)-6,7-methylendioxyphthalazine] | 20 | 23 | 
2 | CCNC(=O)N1N=C(c2ccc(N)cc2)c2cc3c(cc2C1C)OCO3 (stereo not drawn) [Example 2, 4-(4-Aminophenyl)-1,2-dihydro-2-(N-ethylcarbamoyl)-1-methyl-6,7-methylendioxyphthalazine] | 55 | 7.2 | MES Score (protected/no. tested) (Male NIH Swiss mice; 30 mg/kg): 3/3
3 | CCCNC(=O)N1N=C(c2ccc(N)cc2)c2cc3c(cc2C1C)OCO3 (stereo not drawn) [Example 3, 4-(4-Aminophenyl)-1,2-dihydro-1-methyl-2-propylcarbamoyl-6,7-methylendioxyphthalazine] | 80 | 2.8 | MES Score (protected/no. tested) (Male NIH Swiss mice; 31 mg/kg): 5/8
4 | CC(C)NC(=O)N1N=C(c2ccc(N)cc2)c2cc3c(cc2C1C)OCO3 (stereo not drawn) [Example 4, 4-(4-Aminophenyl)-1,2-dihydro-1-methyl-2-isopropylcarbamoyl-6,7-methylendioxyphthalazine] | 45 |  | 
5 | CCCCNC(=O)N1N=C(c2ccc(N)cc2)c2cc3c(cc2C1C)OCO3 (stereo not drawn) [Example 5, 4-(4-Aminophenyl)-1,2-dihydro-1-methyl-2-n-butylcarbamoyl-6,7-methylenedioxyphthalazine] | 86 | 1.8 | 
6 | CC1c2cc3c(cc2C(c2ccc(N)cc2)=NN1C(=O)NC(C)(C)C)OCO3 (stereo not drawn) [Example 7] | 70 | 5.4 | 
7 | CCC1c2cc3c(cc2C(c2ccc(N)cc2)=NN1C(=O)NC)OCO3 (stereo not drawn) [Example 11, 4-(4-Aminophenyl)-1,2-dihydro-1-ethyl-2-methylcarbamoyl-6,7-methylendioxyphthalazine] | 36 |  | 
8 | CC(=O)N1N=C(c2ccc(N)cc2)c2cc3c(cc2C1C)OCO3 (stereo not drawn) [Example 17] | 20 |  | 
9 | CC1c2cc3c(cc2C(c2ccc(N)cc2)=NN1C(=O)N(C)C)OCO3 (stereo not drawn) [Example 31, 4-(4-Aminophenyl)-1,2-dihydro-2-(N,N-dimethylcarbamoyl)-1-methyl-6,7-methylendioxyphthalazine] | 33 |  | 
10 | CCCNC(=O)N1N=C(c2ccc(N)cc2)c2cc(OC)c(OC)cc2C1C (stereo not drawn) [Example 133] |  |  | scMET Score (protect./no. tested) (Mice): 1/5; MES Score (protected/no. tested) (Male NIH Swiss mice; 30 mg/kg): 1/3
11 | CC1=NN=C(c2ccc(N)cc2)c2cc3c(cc2C1)OCO3 [GYKI 52466] |  |  | effectiveness in global ischemia compared with NBQX (global ischemia): as effective as the glutamate site competitive antagonist NBQX; reduction of cortical infarct volumes (cortical infarct volumes; delayed for one hour): 48%; reduction of cortical infarct volumes (cortical infarct volumes; given continuously for 2 hours just after occlusion): 68%
